In publication PMC7036018 (ACS chemical biology, 2020):

Key:
[1] = test system: P. aeruginosa; assay: PqsE-dependent pyocyanin production; type: cell-based, Pseudomonas aeruginosa; details: 100 μM, overnight at 37°C, OD695
[2] = test system: P. aeruginosa; assay: Mass spectrometry of compound levels in cell-free culture fluid and cell lysate; type: cell-based, Pseudomonas aeruginosa; details: positive control
[3] = test system: P. aeruginosa; details: cited from earlier work

Row | Compound | effect on pyocyanin production [1] | concentration in cell lysate over time [2] | concentration in cell-free culture fluid over time [2] | effect on in vivo pyocyanin production levels [3]
1 | meta-bromo-thiolactone [mBTL] | known inhibitor of pyocyanin production | increased | progressively decreased | 
2 | O=C(O)c1ccccc1-c1cccnc1 [Compound C1, 2-(pyridin-3’-yl) benzoic acid] |  |  |  | does not affect in vivo pyocyanin production levels
